Assay results as given in patent publication US11655217B2, “Pyrazole MAGL inhibitors” (H. Lundbeck A/S, priority 2017, dated 2023).

How the values were obtained:
MAGL = MAGL (Mus musculus (Mouse), UniProt O35678); test: Mouse brain proteomes from inhibitor treated mice (oral gavage, sacrificed 4 h after administration, ABPP analysis); details: 5 mg/kg oral gavage
Description: (§1) Preparation of Mouse Brain Proteomes from Inhibitor Treated Mice.
(§2) Inhibitors were administered to wild-type C57Bl/6J by oral gavage in a vehicle of polyethylene glycol.

FAAH = FAAH (Mus musculus (Mouse), UniProt O08914); test: Mouse brain proteomes from inhibitor treated mice (oral gavage, sacrificed 4 h after administration, ABPP analysis), FAAH; details: 5 mg/kg oral gavage
Sequence of FAAH (O08914 whole entry): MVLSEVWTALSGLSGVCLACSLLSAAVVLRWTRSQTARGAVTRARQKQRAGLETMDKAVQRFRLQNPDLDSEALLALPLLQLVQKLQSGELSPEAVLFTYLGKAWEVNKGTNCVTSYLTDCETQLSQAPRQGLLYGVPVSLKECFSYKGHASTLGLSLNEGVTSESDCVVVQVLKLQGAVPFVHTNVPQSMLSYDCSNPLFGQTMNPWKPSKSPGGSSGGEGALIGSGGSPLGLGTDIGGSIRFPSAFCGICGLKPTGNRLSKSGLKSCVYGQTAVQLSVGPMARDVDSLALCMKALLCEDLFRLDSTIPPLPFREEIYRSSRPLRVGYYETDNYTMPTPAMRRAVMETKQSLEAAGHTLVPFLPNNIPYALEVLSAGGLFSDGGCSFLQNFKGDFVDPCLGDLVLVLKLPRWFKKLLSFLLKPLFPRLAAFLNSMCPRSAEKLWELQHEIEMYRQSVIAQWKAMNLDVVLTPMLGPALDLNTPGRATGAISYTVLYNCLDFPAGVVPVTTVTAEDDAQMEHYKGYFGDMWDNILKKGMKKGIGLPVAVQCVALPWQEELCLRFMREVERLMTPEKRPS
Description: as §1, §2

Sequence of MAGL (O35678 whole entry): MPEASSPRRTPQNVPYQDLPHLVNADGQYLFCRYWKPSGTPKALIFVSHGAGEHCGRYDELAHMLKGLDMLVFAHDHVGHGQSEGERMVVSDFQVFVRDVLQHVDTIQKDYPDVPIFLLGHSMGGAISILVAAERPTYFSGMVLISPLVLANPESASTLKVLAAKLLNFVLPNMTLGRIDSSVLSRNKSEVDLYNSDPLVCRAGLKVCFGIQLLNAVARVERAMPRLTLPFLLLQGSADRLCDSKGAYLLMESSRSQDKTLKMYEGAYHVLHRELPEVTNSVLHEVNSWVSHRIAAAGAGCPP

SMILES	MAGL % inh. 5 mg/kg (mouse) (MAGL)	FAAH % inh. 5 mg/kg (mouse) (FAAH)
O=C(O)c1ccn(C(=O)N2CCN(Cc3cccc(Cl)c3N3C4CCC3COC4)CC2)n1 [Example 212, 1-(4-(2-(3-oxa-8-azabicyclo[3.2.1]octan-8-yl)-3-chlorobenzyl)piper-azine-1-carbonyl)-1H-pyrazole-3-carboxylic acid]	D (% inhibition is greater than or equal to 0% and less than 25%)	D (% inhibition is greater than or equal to 0% and less than 25%)
O=C(O)c1ccn(C(=O)N2CCC3(CCN(Cc4cccc(Oc5ccc(Cl)cc5)c4)C3)CC2)n1 [Example 210, 1-(2-(3-(4-chlorophenoxy)benzyl)-2,8-diazaspiro[4.5]decane-8-carbonyl)-1H-pyrazole-3-carboxylic acid]	D (% inhibition is greater than or equal to 0% and less than 25%)	D (% inhibition is greater than or equal to 0% and less than 25%)
Cc1cn(C(=O)N2CCC3(CC2)CN(Cc2ccc(C(F)(F)F)cc2N2CCCC2)C3)nc1C(=O)O [Example 135, 4-methyl-1-(2-(2-(pyrrolidin-1-yl)-4-(trifluoromethyl)benzyl)-2,7-diazaspiro[3.5]no-nane-7-carbonyl)-1H-pyrazole-3-carboxylic acid]	D (% inhibition is greater than or equal to 0% and less than 25%)	D (% inhibition is greater than or equal to 0% and less than 25%)
CC(=O)NC1CCN(c2cc(C(F)(F)F)ccc2CN2CCN(C(=O)n3ccc(C(=O)O)n3)CC2)CC1 [Example 119, 1-(4-(2-(4-acetamidopiperidin-1-yl)-4-(trifluoromethyl)benzyl)piperazine-1-carbonyl)-1H-pyrazole-3-carboxylic acid]	D (% inhibition is greater than or equal to 0% and less than 25%)	D (% inhibition is greater than or equal to 0% and less than 25%)
O=C(O)c1ccn(C(=O)N2CCN(Cc3cccc(Oc4ccc(Cl)cc4)c3)CC2)n1 [Example 98, 1-(4-(3-(4-chlorophenoxy)benzyl)piperazine-1-carbonyl)-1H-pyrazole-3-carboxylic acid]	D (% inhibition is greater than or equal to 0% and less than 25%)	D (% inhibition is greater than or equal to 0% and less than 25%)
CC(C)(O)C1CCN(c2cc(C(F)(F)F)ccc2CN2CCN(C(=O)n3ccc(C(=O)O)n3)CC2)CC1 [Example 109, 1-(4-(2-(4-(2-hydroxypropan-2-yl)piperidin-1-yl)-4-(trifluoromethyl)benzyl)piperazine-1-carbonyl)-1H-pyrazole-3-carboxylic acid]	D (% inhibition is greater than or equal to 0% and less than 25%)	D (% inhibition is greater than or equal to 0% and less than 25%)
O=C(O)c1ccn(C(=O)N2CCN(Cc3ccc(C(F)(F)F)cc3Cl)CC2)n1 [Example 91, 1-(4-(2-chloro-4-(trifluoromethyl)benzyl)piperazine-1-carbonyl)-1H-pyrazole-3-carboxylic acid]	D (% inhibition is greater than or equal to 0% and less than 25%)	D (% inhibition is greater than or equal to 0% and less than 25%)
O=C(O)c1ccn(C(=O)N2C[C@H]3C[C@H](OCc4cccc(Oc5ccc(Cl)cc5)c4)C[C@H]3C2)n1 [Example 158, 1-(trans-5-((3-(4-chlorophenoxy)benzyl)oxy)octa-hydrocyclopenta[c]pyrrole-2-carbonyl)-1H-pyrazole-3-carboxylic acid]	D (% inhibition is greater than or equal to 0% and less than 25%)	D (% inhibition is greater than or equal to 0% and less than 25%)
CN(Cc1cc(C(F)(F)F)ccc1N1CCCC1)C1(C)CCN(C(=O)n2ccc(C(=O)O)n2)CC1 [Example 384, 1-(4-methyl-4-(methyl(2-(pyrrolidin-1-yl)-5-(trifluoromethyl)benzyl)amino)piper-idine-1-carbonyl)-1H-pyrazole-3-carboxylic acid]	D (% inhibition is greater than or equal to 0% and less than 25%)	
Cc1ccc(Oc2cccc(CN3CCN(C(=O)n4ccc(C(=O)O)n4)CC3)c2)cc1 [Example 251, 1-(4-(3-(p-tolyloxy)benzyl)piperazine-1-carbonyl)-1H-pyrazole-3-carboxylic acid]	D (% inhibition is greater than or equal to 0% and less than 25%)	
Cc1cc(-c2ccccc2)ccc1CN1CCN(C(=O)n2ccc(C(=O)O)n2)[C@H](C)C1 [Example 245, (R)-1-(2-methyl-4-((3-methyl-[1,1′-biphenyl]-4-yl)methyl)piperazine-1-carbonyl)-1H-pyrazole-3-carboxylic acid]	D (% inhibition is greater than or equal to 0% and less than 25%)	
CN(Cc1cccc(C(F)(F)F)c1N1CCCC1)C1(C)CCN(C(=O)n2ccc(C(=O)O)n2)CC1 [Example 382, 1-(4-methyl-4-(methyl(2-(pyrrolidin-1-yl)-3-(trifluoromethyl)benzyl)amino)piper-idine-1-carbonyl)-1H-pyrazole-3-carboxylic acid]	D (% inhibition is greater than or equal to 0% and less than 25%)	
C[C@@H]1CC[C@@H](C)N1c1cc(C(F)(F)F)ccc1CN1CCN(C(=O)n2ccc(C(=O)O)n2)CC1 [Example 359, 1-(4-(2-((2R,5R)-2,5-dimethylpyrrolidin-1-yl)-4-(trifluoromethyl)benzyl)piperazine-1-carbonyl)-1H-pyrazole-3-carboxylic acid]	D (% inhibition is greater than or equal to 0% and less than 25%)	
O=C(O)c1ccn(C(=O)N2C[C@H]3C[C@H](Oc4cccc(-c5cccnc5)c4)C[C@H]3C2)n1 [Example 241, 1-(trans-5-(3-(pyridin-3-yl)phenoxy)octa-hydrocyclopenta-[c]pyrrole-2-carbonyl)-1H-pyrazole-3-carboxylic acid]	D (% inhibition is greater than or equal to 0% and less than 25%)	
C[C@@H]1C[C@@H](N(C)Cc2cccc(C(F)(F)F)c2)CCN1C(=O)n1ccc(C(N)=O)n1 [Example 260, 1-((2R,4S)-2-methyl-4-(methyl(3-(trifluoromethyl)benzyl)amino)piperidine-1-carbonyl)-1H-pyrazole-3-carboxamide]	A (% inhibition is greater than or equal to 75%)	
O=C(O)c1ccn(C(=O)N2CCC(Oc3ccc(C(F)(F)F)cc3N3CCCC3)CC2)n1 [Example 307, 1-(4-(2-(pyrrolidin-1-yl)-4-(trifluoromethyl)phenoxy)piperidine-1-carbonyl)-1H-pyrazole-3-carboxylic acid]	D (% inhibition is greater than or equal to 0% and less than 25%)	
C[C@@H]1CN(Cc2ccc(C(F)(F)F)cc2N2CCCC2)CCN1C(=O)n1ccc(C(=O)O)n1 [Example 327, (R)-1-(2-methyl-4-(2-(pyrrolidin-1-yl)-4-(trifluoromethyl)benzyl)piperazine-1-carbonyl)-1H-pyrazole-3-carboxylic acid]	D (% inhibition is greater than or equal to 0% and less than 25%)	
O=C(O)c1nn(C(=O)N2CCC3(CCN(Cc4cccc(Cl)c4C(F)(F)F)C3)CC2)cc1Cl [Example 26, 4-Chloro-1-(2-(3-chloro-2-(trifluoromethyl)benzyl)-2,8-diazaspiro[4.5]decane-8-carbonyl)-1H-pyrazole-3-carboxylic Acid]	D (% inhibition is greater than or equal to 0% and less than 25%)	
CC(C)c1cccc(O[C@H]2C[C@@H]3CN(C(=O)n4ccc(C(=O)O)n4)C[C@@H]3C2)c1 [Example 220, 1-(trans-5-(3-isopropylphenoxy)ocatahydrocyclo-penta[c]pyrrole-2-carbonyl)-1H-pyrazole-3-carboxylic acid]	C (% inhibition is greater than or equal to 25% and less than 50%)	
C[C@@H]1CN(Cc2ccc(-c3ccccc3)cc2Cl)CCN1C(=O)n1ccc(C(=O)O)n1 [Example 291, (R)-1-(4-((3-chloro-[1,1′-biphenyl]-4-yl)methyl)-2-methylpiperazine-1-carbonyl)-1H-pyrazole-3-carboxylic acid]	C (% inhibition is greater than or equal to 25% and less than 50%)	
C[C@H]1CN(Cc2ccc(C(F)(F)F)cc2N2CCCC2)CCN1C(=O)n1ccc(C(=O)O)n1 [Example 328, (S)-1-(2-methyl-4-(2-(pyrrolidin-1-yl)-4-(trifluoromethyl)benzyl)piperazine-1-carbonyl)-1H-pyrazole-3-carboxylic acid]	D (% inhibition is greater than or equal to 0% and less than 25%)	
Cc1cn(C(=O)N2C[C@H]3C[C@H](OCc4cc(F)cc(Cl)c4)C[C@H]3C2)nc1C(=O)O [Example 252, 1-(trans-5-((3-chloro-5-fluorobenzyl)oxy)octahydrocyclo-penta[c]pyrrole-2-carbonyl)-4-methyl-1H-pyrazole-3-carboxylic acid]	D (% inhibition is greater than or equal to 0% and less than 25%)	
CN(Cc1cc(N2CCCC2)cc(C(F)(F)F)c1)C1(C)CCN(C(=O)n2ccc(C(=O)O)n2)CC1 [Example 381, 1-(4-methyl-4-(methyl(3-(pyrrolidin-1-yl)-5-(trifluoromethyl)benzyl)amino)piper-idine-1-carbonyl)-1H-pyrazole-3-carboxylic acid]	D (% inhibition is greater than or equal to 0% and less than 25%)	
O=C(O)c1nn(C(=O)N2CCC3(CCN(Cc4cc(Cl)cc(C(F)(F)F)c4)C3)CC2)cc1Cl [Example 388, 4-chloro-1-(2-(3-chloro-5-(trifluoromethyl)benzyl)-2,8-diazaspiro[4.5]decane-8-carbonyl)-1H-pyrazole-3-carboxylic acid]	D (% inhibition is greater than or equal to 0% and less than 25%)	
